Measurements as given in the supplement of paper PMC13380429.

Columns and labels:
[1] = system: A549-ACE2 infected with SARS-CoV-2; experiment: morphology score (similarity to uninfected cells); higher = more like uninfected cells; conditions: 24 h
A549-ACE2 [2] = experiment: drug-induced phospholipidosis relative to tamoxifen; higher = more phospholipidosis
[3] = system: A549-ACE2 infected with SARS-CoV-2; experiment: cell count relative to DMSO; higher = less toxic; conditions: 24 h
[4] = system: A549-ACE2 infected with SARS-CoV-2; experiment: SARS-CoV-2 infection rate relative to DMSO; higher = more infection; conditions: 24 h
U2OS [5] = experiment: relative viability EC50 (midpoint between 100% and the lowest measured viability); higher = less toxic; conditions: 72 h
Vero E6 [6] = experiment: as above; conditions: 72 h
U2OS [7] = experiment: drug sensitivity score (DSS) for viability; higher = more toxic; extreme values may be limits of the assay; conditions: 72 h
Caco-2 [8] = experiment: as above; conditions: 72 h
Vero E6 [9] = experiment: as above; conditions: 72 h
HepG2 [10] = experiment: as above; conditions: 72 h
U2OS [11] = experiment: cell viability relative to DMSO; higher = less toxic; conditions: 72 h
Caco-2 [12] = experiment: as above; conditions: 72 h
Vero E6 [13] = experiment: as above; conditions: 72 h
HepG2 [14] = experiment: as above; conditions: 72 h
A549-ACE2 [15] = experiment: phospholipidosis EC50; higher = less potent phospholipidosis inducer
Calu-3 [16] = experiment: relative viability EC50 (midpoint between 100% and the lowest measured viability); higher = less toxic; conditions: 72 h
Caco-2 [17] = experiment: as above; conditions: 72 h
HepG2 [18] = experiment: as above; conditions: 72 h
Calu-3 [19] = experiment: drug sensitivity score (DSS) for viability; higher = more toxic; extreme values may be limits of the assay; conditions: 72 h
Calu-3 [20] = experiment: cell viability relative to DMSO; higher = less toxic; conditions: 72 h

Work on `Cn1c(NC[C@@H](N)Cc2ccccc2)nc(-c2ccncc2)c(-c2ccc3ccccc3c2)c1=O` [AMG-548] yielded a morphology score ([1]; 0.3 µM) of -0.14, a morphology score ([1]; 3 µM) of 0.22 and a morphology score ([1]; 10 µM) of 0.82. It also gave a morphology score ([1]; 30 µM) of 0.53, a drug-induced phospholipidosis (A549-ACE2 [2]; 0.3 µM, 24 h) of -3.67% and a drug-induced phospholipidosis (A549-ACE2 [2]; 0.3 µM, 48 h) of -2.54%. The drug-induced phospholipidosis (A549-ACE2 [2]; 0.3 µM, 72 h) was -1.85%, the drug-induced phospholipidosis (A549-ACE2 [2]; 0.833333 µM, 24 h) was -2.85% and the drug-induced phospholipidosis (A549-ACE2 [2]; 0.833333 µM, 48 h) was -2.01%. It also gave a drug-induced phospholipidosis (A549-ACE2 [2]; 0.833333 µM, 72 h) of -0.623%, a drug-induced phospholipidosis (A549-ACE2 [2]; 3.33333 µM, 24 h) of 6.77% and a drug-induced phospholipidosis (A549-ACE2 [2]; 3.33333 µM, 48 h) of 5.31%. It also gave a drug-induced phospholipidosis (A549-ACE2 [2]; 3.33333 µM, 72 h) of 7.44%, a drug-induced phospholipidosis (A549-ACE2 [2]; 6.66667 µM, 24 h) of 44.3% and a drug-induced phospholipidosis (A549-ACE2 [2]; 6.66667 µM, 48 h) of 39.9%. The drug-induced phospholipidosis (A549-ACE2 [2]; 6.66667 µM, 72 h) was 37.6%, the drug-induced phospholipidosis (A549-ACE2 [2]; 10 µM, 24 h) was 80.5% and the drug-induced phospholipidosis (A549-ACE2 [2]; 10 µM, 48 h) was 73.3%. It also gave a drug-induced phospholipidosis (A549-ACE2 [2]; 10 µM, 72 h) of 80.8%, a drug-induced phospholipidosis (A549-ACE2 [2]; 30 µM, 24 h) of 129% and a drug-induced phospholipidosis (A549-ACE2 [2]; 30 µM, 48 h) of 125%. It also gave a drug-induced phospholipidosis (A549-ACE2 [2]; 30 µM, 72 h) of 151%, a cell count ([3]; 0.3 µM) of 93% and a cell count ([3]; 3 µM) of 110%. For the same molecule, the cell count ([3]; 10 µM) was 123%, the cell count ([3]; 30 µM) was 106% and the SARS-CoV-2 infection rate ([4]; 0.3 µM) was 99%. For the same molecule, the SARS-CoV-2 infection rate ([4]; 3 µM) was 71%, the SARS-CoV-2 infection rate ([4]; 10 µM) was 27% and the SARS-CoV-2 infection rate ([4]; 30 µM) was 11%. For the same molecule, the “relative viability EC50” value (U2OS [5]) was greater than 10 µM, the “relative viability EC50” value (Vero E6 [6]) was greater than 10 µM and the drug sensitivity score (U2OS [7]) was 2.3. It also gave a drug sensitivity score (Caco-2 [8]) of 2.8, a drug sensitivity score (Vero E6 [9]) of 0.3 and a drug sensitivity score (HepG2 [10]) of 0.9. It also gave a cell viability (U2OS [11]; 1 nM) of 101%, a cell viability (U2OS [11]; 10 nM) of 94.2% and a cell viability (U2OS [11]; 100 nM) of 93.1%. For the same molecule, the cell viability (U2OS [11]; 1000 nM) was 85.3%, the cell viability (U2OS [11]; 10000 nM) was 76.3% and the cell viability (Caco-2 [12]; 1 nM) was 96.8%. For the same molecule, the cell viability (Caco-2 [12]; 10 nM) was 87.9%, the cell viability (Caco-2 [12]; 100 nM) was 102% and the cell viability (Caco-2 [12]; 1000 nM) was 89.5%. The cell viability (Caco-2 [12]; 10000 nM) was 69.9%, the cell viability (Vero E6 [13]; 1 nM) was 106% and the cell viability (Vero E6 [13]; 10 nM) was 104%. For the same molecule, the cell viability (Vero E6 [13]; 100 nM) was 99.2%, the cell viability (Vero E6 [13]; 1000 nM) was 89% and the cell viability (Vero E6 [13]; 10000 nM) was 97.2%. The cell viability (HepG2 [14]; 1 nM) was 106%, the cell viability (HepG2 [14]; 10 nM) was 108% and the cell viability (HepG2 [14]; 100 nM) was 101%. For the same molecule, the cell viability (HepG2 [14]; 1000 nM) was 104%, the cell viability (HepG2 [14]; 10000 nM) was 72.4% and the “phospholipidosis EC50” value (A549-ACE2 [15]; 24 h) was 8.48 µM. For the same molecule, the “phospholipidosis EC50” value (A549-ACE2 [15]; 48 h) was 9.02 µM and the “phospholipidosis EC50” value (A549-ACE2 [15]; 72 h) was 9.93 µM.

`Cc1cc(Nc2ncc(Cl)c(Nc3ccccc3S(=O)(=O)C(C)C)n2)c(OC(C)C)cc1C1CCNCC1` [ceritinib] gave a morphology score ([1]; 0.1 µM) of 0.01, a morphology score ([1]; 0.3 µM) of 0.04 and a morphology score ([1]; 1 µM) of 0.56. It also gave a morphology score ([1]; 3 µM) of 0.69, a drug-induced phospholipidosis (A549-ACE2 [2]; 0.3 µM, 24 h) of 9.71% and a drug-induced phospholipidosis (A549-ACE2 [2]; 0.3 µM, 48 h) of 12.5%. For the same molecule, the drug-induced phospholipidosis (A549-ACE2 [2]; 0.3 µM, 72 h) was 11.3%, the drug-induced phospholipidosis (A549-ACE2 [2]; 0.833333 µM, 24 h) was 10.9% and the drug-induced phospholipidosis (A549-ACE2 [2]; 0.833333 µM, 48 h) was 7.38%. The drug-induced phospholipidosis (A549-ACE2 [2]; 0.833333 µM, 72 h) was 5.24%, the drug-induced phospholipidosis (A549-ACE2 [2]; 3.33333 µM, 24 h) was 62% and the drug-induced phospholipidosis (A549-ACE2 [2]; 3.33333 µM, 48 h) was 84.3%. The drug-induced phospholipidosis (A549-ACE2 [2]; 3.33333 µM, 72 h) was 83.1%, the drug-induced phospholipidosis (A549-ACE2 [2]; 6.66667 µM, 24 h) was 78.4% and the drug-induced phospholipidosis (A549-ACE2 [2]; 6.66667 µM, 48 h) was 87.6%. The drug-induced phospholipidosis (A549-ACE2 [2]; 10 µM, 24 h) was 87.3%, the drug-induced phospholipidosis (A549-ACE2 [2]; 10 µM, 48 h) was 93% and the drug-induced phospholipidosis (A549-ACE2 [2]; 30 µM, 24 h) was 66.3%. The drug-induced phospholipidosis (A549-ACE2 [2]; 30 µM, 48 h) was 69.7%, the cell count ([3]; 0.1 µM) was 104% and the cell count ([3]; 0.3 µM) was 100%. The cell count ([3]; 1 µM) was 97%, the cell count ([3]; 3 µM) was 90% and the SARS-CoV-2 infection rate ([4]; 0.1 µM) was 110%. It also gave an SARS-CoV-2 infection rate ([4]; 0.3 µM) of 96%, an SARS-CoV-2 infection rate ([4]; 1 µM) of 65% and an SARS-CoV-2 infection rate ([4]; 3 µM) of 44%. The “relative viability EC50” value (U2OS [5]) was 2.01 µM, the “relative viability EC50” value (Calu-3 [16]) was 2.15 µM and the “relative viability EC50” value (Caco-2 [17]) was 1.82 µM. The “relative viability EC50” value (Vero E6 [6]) was 2.78 µM, the “relative viability EC50” value (HepG2 [18]) was 1.44 µM and the drug sensitivity score (U2OS [7]) was 7.5. For the same molecule, the drug sensitivity score (Calu-3 [19]) was 7.6, the drug sensitivity score (Caco-2 [8]) was 7.7 and the drug sensitivity score (Vero E6 [9]) was 5.2. For the same molecule, the drug sensitivity score (HepG2 [10]) was 9.7, the cell viability (U2OS [11]; 1 nM) was 97.7% and the cell viability (U2OS [11]; 10 nM) was 92.8%. The cell viability (U2OS [11]; 100 nM) was 97.3%, the cell viability (U2OS [11]; 1000 nM) was 86.2% and the cell viability (U2OS [11]; 10000 nM) was 5.7%. The cell viability (Calu-3 [20]; 1 nM) was 102%, the cell viability (Calu-3 [20]; 10 nM) was 108% and the cell viability (Calu-3 [20]; 100 nM) was 102%. It also gave a cell viability (Calu-3 [20]; 1000 nM) of 87.5%, a cell viability (Calu-3 [20]; 10000 nM) of 0.5% and a cell viability (Caco-2 [12]; 1 nM) of 99.3%. For the same molecule, the cell viability (Caco-2 [12]; 10 nM) was 88.1%, the cell viability (Caco-2 [12]; 100 nM) was 107% and the cell viability (Caco-2 [12]; 1000 nM) was 83.7%. The cell viability (Caco-2 [12]; 10000 nM) was 10.1%, the cell viability (Vero E6 [13]; 1 nM) was 99.4% and the cell viability (Vero E6 [13]; 10 nM) was 101%. For the same molecule, the cell viability (Vero E6 [13]; 100 nM) was 97.9%, the cell viability (Vero E6 [13]; 1000 nM) was 95.9% and the cell viability (Vero E6 [13]; 10000 nM) was 17%. The cell viability (HepG2 [14]; 1 nM) was 94.5%, the cell viability (HepG2 [14]; 10 nM) was 91.3% and the cell viability (HepG2 [14]; 100 nM) was 106%. For the same molecule, the cell viability (HepG2 [14]; 1000 nM) was 71.4%, the cell viability (HepG2 [14]; 10000 nM) was 0.2% and the “phospholipidosis EC50” value (A549-ACE2 [15]; 24 h) was 2.94 µM. For the same molecule, the “phospholipidosis EC50” value (A549-ACE2 [15]; 48 h) was 1.79 µM.
